Measurements published in paper PMC9657749, “Cytotoxic Activity and Docking Studies of 2-arenoxybenzaldehyde N-acyl Hydrazone and 1,3,4-Oxadiazole Derivatives against Various Cancer Cell Lines” (Molecules, 2022).

How the values were obtained:
[1] = test system: MDA-MB-231 (breast adenocarcinoma) cells; assay: Cell Titer Glo cell viability assay, MDA-MB-231; format: cell-based, human; details: MDA-MB-231, 48 h, 25-300 µM, triplicate, means
Procedure: (§1) To determine the effect of N-acyl hydrazones and 2,5 substituted 1,3,4-oxadiazole derivatives, a dose-response curve was produced for each and every molecule based on the viability of A549 (lung carcinoma), PC-3 (prostate adenocarcinoma), and MDA-MB-231(breast adenocarcinoma) cancerous cell lines by using the Cell Titer Glo assay. The MRC-5 (lung fibroblast) cell line was used as the non-cancerous control group. For 48 h, the cytotoxic effects of novel derivatives on all of the cell lines were investigated in a dose-dependent manner.
(§2) In this study, four adherent cell lines were used: three from different cancer types and one from a regular fibroblast. The cancerous cells were human breast carcinoma (MDA-MB-231, ATCC code: HTB-26), human prostatic carcinoma (PC-3, ATCC code: CRL-1435), and human lung cancer epithelial cells (A549, ATCC code: CCL-185), while the fibroblasts in the control group were human fetal lung (MRC-5, ATCC code: CCL-171) cells. All cells were checked every few weeks for various sources of contamination.
(§3) […], MRC-5, and PC-3 cell lines were cultured in T75 flasks with high glucose DMEM medium (Pan Biotech, Aidenbach, Germany), and A549 cells were cultured with RPMI-1640 (Pan Biotech) containing 10% fetal bovine serum (Gibco, Waltham, MA, USA), 1% penicillin-streptomycin (Gibco), and 1% L-glutamine (Gibco) at 37 °C with 5% CO2. All the cells were removed from the flask with Trypsin/EDTA 0.25% (Gibco) when they reached 80% density.
(§4) To test the effect of different doses on cells, all types of cells were seeded into 96-well plates at a density of eight thousand cells in 100 µL volume per well. Cells were incubated at 37 °C with 5% CO2 for […]. After 24 h in the incubator, the medium on top of each well was discharged. All of the cells were treated with 25, 50, 100, 200, or 300 µM of fifteen N-acyl hydrazones and twelve 2,5-substituted 1,3,4-oxadiazole in a dose-increasing manner. Molecules were studied in triplicate for each concentration. To assess the viability of non-treated cells, a control group was placed in the setup with only cells and DMSO control treatments without any candidate molecules introduced. Plates were incubated for 48 h, and Cell Titer Glo reagent (Promega) was added on top of each well. Cells were then evaluated in terms of viability with the Cell Titer-Glo Luminescent Cell Viability Assay. Luminescence signals were detected with the SpectraMax i3x Multimode Detection Platform to obtain the cell viability percentages.

[2] = test system: MRC-5 (lung fibroblast) cells; assay: Cell Titer Glo cell viability assay, MRC-5 non-cancerous control; format: cell-based; details: Homo sapiens, MRC5, MRC-5 non-cancerous fibroblasts, 48 h, 25-300 µM, triplicate, means
Procedure: as §1, §2, §3, §4

[3] = test system: A549 (lung carcinoma) cells; assay: Cell Titer Glo cell viability assay, A549; format: cell-based; details: Homo sapiens, A549, 48 h, 25-300 µM, triplicate, means
Procedure: as §1, §2, §3, §4

[4] = test system: PC-3 (prostate adenocarcinoma) cells; assay: Cell Titer Glo cell viability assay, PC-3; format: cell-based, human; details: PC-3, 48 h, 25-300 µM, triplicate, means
Procedure: as §1, §2, §3, §4

MDA-MB-231 cells = assay: Scratch assay (cell migration), MDA-MB-231; format: cell-based, human; details: 40 µM 1d, 120 µM 1e, 30 µM 2a, 0, 24, 48 h
Procedure: (§5) The dosages for MDA-MB-231 were 40 µM for 1d, 120 µM for 1e, and 30 µM for 2a. The dosages for A-549 were 55 µM for 1d, 15 µM for 1e, and 15 µM for 2a. Three photos were taken: one immediately after the application, one 24 h later, and one 48 h later. The images of each time stamp for all three molecules can be seen in Figure 4 for the A549 cell line and Figure 5 for the MDA-MB-231 cell line.
(§6) To make comparisons, each application was performed in triplicate for all three molecules; the averages and standard deviations were calculated, and the p values were calculated by considering the sample sizes.
(§7) MDA-MB-231 and A-549 cells were seeded for the scratch assay. A total of 100.000 cells were cultured in 1.5 mL complete medium per well on a 6-well plate, as detailed above. The 6-well plates were then incubated for 24 h at 37 °C. After 24 h, accumulated cells were scraped out with the tip of a 200 µL pipette. After discarding the media on top of the cells, the cells were treated for 48 h with three molecules: 1d, 1e, and 2a.
(§8) The dosages for the MDA-MB-231 cell line were 40 µM for 1d, 120 µM for 1e, and 30 µM for 2a. The dosages for the A-549 cell line were 55 µM for 1d, 15 µM for 1e, and 15 µM for 2a.
(§9) The cell states were evaluated under the microscope, and markings were made to obtain photos from the same location during the follow-up. Images of the determined reference points were captured under the microscope immediately after treatment, 24 h later, and 48 h later.

A-549 cells = assay: Scratch assay (cell migration), A549; format: cell-based, human; details: 55 µM 1d, 15 µM 1e, 15 µM 2a, 0, 24, 48 h
Procedure: as §5, §6, §7, §8, §9

IC50 ([1]; Homo sapiens) | IC50 [3] | IC50 ([4]; Homo sapiens, 48 h) | IC50 [1] | IC50 [4] | Structure (SMILES) | IC50 [2] | Antimetastatic effect / wound healing rate, scratch assay (MDA-MB-231 cells) | Antimetastatic effect / wound healing rate, scratch assay (A-549 cells)
53 µM | 28.7 µM | 47.8 µM |  |  | O=C(N/N=C/c1ccccc1Oc1ccccc1)c1ccccc1 [1a] | 16.9 µM |  | 
138 µM | 72.8 µM | 25.3 µM |  |  | O=C(N/N=C/c1ccccc1Oc1ccccc1)c1ccc(Cl)cc1 [1b] | 24.4 µM |  | 
50.8 µM | 208 µM | 86 µM |  |  | O=C(N/N=C/c1ccccc1Oc1ccccc1)c1cccnc1 [1c] | 43.5 µM |  | 
31.5 µM | 49.8 µM | 9.39 µM | 31.5 µM | 9.39 µM | O=C(N/N=C/c1ccccc1Oc1ccccc1)c1ccco1 [1d] | 44.7 µM | did not show a significant antimetastatic effect | did not show a significant antimetastatic effect
108 µM | 13.4 µM | 18.1 µM |  |  | Cc1nnsc1C(=O)N/N=C/c1ccccc1Oc1ccccc1 [1e] | 87 µM | did not show a significant antimetastatic effect | did not show a significant antimetastatic effect
77.2 µM | 36.9 µM | 65.9 µM |  |  | N#Cc1ccc(Oc2ccccc2/C=N/NC(=O)c2ccccc2)cc1 [1f] | 56.8 µM |  | 
45.1 µM | 31.8 µM | 66.5 µM |  |  | N#Cc1ccc(Oc2ccccc2/C=N/NC(=O)c2ccc(Cl)cc2)cc1 [1g] | 62.8 µM |  | 
65.8 µM | 73 µM | 78.3 µM |  |  | N#Cc1ccc(Oc2ccccc2/C=N/NC(=O)c2cccnc2)cc1 [1h] | 66.9 µM |  | 
20.7 µM | 208 µM | 84.6 µM |  |  | N#Cc1ccc(Oc2ccccc2/C=N/NC(=O)c2ccco2)cc1 [1i] | 31.7 µM |  | 
25.9 µM | 26.6 µM | 18.4 µM |  |  | Cc1nnsc1C(=O)N/N=C/c1ccccc1Oc1ccc(C#N)cc1 [1j] | 37.1 µM |  | 
32.7 µM | 122 µM | 46.4 µM |  |  | O=C(N/N=C/c1ccccc1Oc1ccc(Cl)cc1)c1ccccc1 [1k] | 66.9 µM |  | 
77.7 µM | 39.4 µM | 30.2 µM |  |  | O=C(N/N=C/c1ccccc1Oc1ccc(Cl)cc1)c1ccc(Cl)cc1 [1l] | 14.6 µM |  | 
55.5 µM | 71.8 µM | 38.1 µM |  |  | O=C(N/N=C/c1ccccc1Oc1ccc(Cl)cc1)c1cccnc1 [1m] | 37.9 µM |  | 
37.9 µM | 39.4 µM | 30.4 µM |  |  | O=C(N/N=C/c1ccccc1Oc1ccc(Cl)cc1)c1ccco1 [1n] | 50.6 µM |  | 
100 µM | 89.7 µM | 27 µM |  |  | Cc1nnsc1C(=O)N/N=C/c1ccccc1Oc1ccc(Cl)cc1 [1o] | 7.78 µM |  | 
24 µM | 29.3 µM | 66 µM |  |  | c1ccc(Oc2ccccc2-c2nnc(-c3ccccc3)o2)cc1 [2a] | 74.5 µM | did not show a significant antimetastatic effect | did not show a significant antimetastatic effect
46.9 µM | 152 µM | 82.2 µM |  |  | Clc1ccc(-c2nnc(-c3ccccc3Oc3ccccc3)o2)cc1 [2b] | 36 µM |  | 
42.6 µM | 109 µM | 121 µM |  |  | c1ccc(Oc2ccccc2-c2nnc(-c3cccnc3)o2)cc1 [2c] | 12.8 µM |  | 
78.6 µM | 102 µM | 54.3 µM |  |  | c1ccc(Oc2ccccc2-c2nnc(-c3ccco3)o2)cc1 [2d] | 40.1 µM |  | 
32.7 µM | 45.8 µM | 34.2 µM |  |  | N#Cc1ccc(Oc2ccccc2-c2nnc(-c3ccccc3)o2)cc1 [2f] | 141 µM |  | 
55.7 µM | 64.8 µM | 127 µM |  |  | N#Cc1ccc(Oc2ccccc2-c2nnc(-c3ccc(Cl)cc3)o2)cc1 [2g] | 16 µM |  | 
38.2 µM | 78.6 µM | 78.2 µM |  |  | N#Cc1ccc(Oc2ccccc2-c2nnc(-c3cccnc3)o2)cc1 [2h] | 23.1 µM |  | 
23.1 µM | 72.9 µM | 41.4 µM |  |  | N#Cc1ccc(Oc2ccccc2-c2nnc(-c3ccco3)o2)cc1 [2i] | 23.1 µM |  | 
79.2 µM | 90 µM | 65.8 µM |  |  | Clc1ccc(Oc2ccccc2-c2nnc(-c3ccccc3)o2)cc1 [2k] | 58.3 µM |  | 
22.7 µM | 36.3 µM | 38.4 µM |  |  | Clc1ccc(Oc2ccccc2-c2nnc(-c3ccc(Cl)cc3)o2)cc1 [2l] | 51.9 µM |  | 
108 µM | 137 µM | 124 µM |  |  | Clc1ccc(Oc2ccccc2-c2nnc(-c3cccnc3)o2)cc1 [2m] | 124 µM |  | 
30.4 µM | 28.8 µM | 25.6 µM |  |  | Clc1ccc(Oc2ccccc2-c2nnc(-c3ccco3)o2)cc1 [2n] | 35.6 µM |  | 
